BindingDB's records for doi:10.1021/cb400075f (Boehringer Ingelheim (Canada), 2013)
pIC50, pKd: −log10 of the molar value.

Key:
Gag-Pol polyprotein [1] = molecular target: T1, Gag-Pol polyprotein (Human immunodeficiency virus type 1 group M subtype B (isolate NY5), UniProt P12497); assay: Capsid Assembly Assay
Excerpt: In vitro capsid assembly assay (CAA) was used in a HTS to identify potential inhibitors of capsid assembly.

Gag-Pol polyprotein [2] = molecular target: T1, Gag-Pol polyprotein; assay: Capsid Assembly Assay; remark: listed apart in the source

| SMILES | pIC50 (Gag-Pol polyprotein [1]) | pKd (Gag-Pol polyprotein [2]) |
| --- | --- | --- |
| CN(C)CCCn1c(-c2c[nH]nc2-c2ccccc2)nc2cc(-c3ccc(C(=O)O)cc3)ccc21 [Benzimidazole Inhibitor, 1] | 5.21 | 4.37 |
| CN(C)CCCn1c(-c2c[nH]nc2-c2ccc(C(F)(F)F)cc2)nc2cc(-c3ccc(C(=O)O)cc3)ccc21 [Benzimidazole Inhibitor, 2] | 5.92 | 5.37 |
| O=C(O)c1ccc(-c2ccc3c(c2)nc(-c2c[nH]nc2-c2ccc(C(F)(F)F)cc2)n3CCCn2ccnc2)cc1 [Benzimidazole Inhibitor, 3] | 5.85 | 5.10 |
| O=C(O)c1ccc(-c2ccc3c(c2)nc(-c2c[nH]nc2-c2cccc(Cl)c2)n3CCCn2ccnc2)cc1 [Benzimidazole Inhibitor, 4] | 5.92 | – |
| O=C(O)c1ccc(-c2ccc3c(c2)nc(-c2c[nH]nc2-c2ccc(C(F)(F)F)cc2)n3CCCN2CCCCC2)cc1 [Benzimidazole Inhibitor, 5] | 6.17 | – |
| O=C(O)c1ccc(-c2ccc3c(c2)nc(-c2c[nH]nc2-c2ccc(Cl)c(Cl)c2)n3CCCNC2CCCCC2)cc1 [Benzimidazole Inhibitor, 6] | 6.46 | 6.30 |
| COCCN=CC1C(=O)N(C)c2ccc(C(F)(F)F)cc2N(c2ccccc2)C1=O (stereo unspecified) [Benzodiazepine Inhibitor, 7] | 6.05 | – |
